Test results published in PMC9318802, “Optimization of 2-Aminoquinazolin-4-(3H)-one Derivatives as Potent Inhibitors of SARS-CoV-2: Improved Synthesis and Pharmacokinetic Properties” (Pharmaceuticals, 2022).
“Also recorded” adds a separate entry of the source. Like-named read-outs stand apart in the source and are kept apart here.

Columns and labels:
[1] = tested on: SARS-CoV-2; assay: Anti-SARS-CoV-2 immunofluorescence assay in Vero cells; format: cell-based; details: for IC50: Severe acute respiratory syndrome coronavirus 2, immunofluorescence, at least two independent experiments
[2] = Cytotoxicity (CC50) in uninfected Vero cells; details: African green monkey
[3] = in vitro; details: African green monkey
[4] = tested on: Vero cells; details: Vero cell assay, previously reported; cited from earlier work
[5] = rats, oral, 10 mg/kg; ref previously reported; cited from earlier work
[6] = tested on: SARS-CoV-2 spike pseudo-typed lentivirus; assay: microbe, parasite or virus in culture; format: cell-based; details: Severe acute respiratory syndrome coronavirus 2, NCI-H1299, 48 h; read-out: IC50 (SARS-CoV-2 spike pseudo-typed virus entry)
[7] = In vivo oral pharmacokinetics in Sprague Dawley rats; details: rat, blood, male Sprague Dawley rats, 10 mg/kg; for Cmax / Tmax / half-life: n = 3; for AUC(0-t): n = 3, read-out: AUC24h
Experimental: Compounds 2a–c were selected for in vivo pharmacokinetic studies based on their ClogP and selectivity index (SI) values. Each compound was administered orally at 10 mg/kg to three Sprague Dawley rats (Figure 2). […] The lipophilic properties and the small size of the fluorine moieties likely enhance the absorption of compound 2b.
Figure 2 Pharmacokinetic evaluation of compounds 1a, 2a, 2b, and 2c. Each compound was orally administrated to male Sprague Dawley rats (n = 3) at 10 mg/kg. TEXT PRINTED IN THE PICTURE: 1a: Tmax (h): 2.50; Cmax (μg/mL): 0.87; T1/2 (h): 5.65; AUC24h (μg·h/mL): 6.62 | 2a: Tmax (h): 4.67; Cmax (μg/mL): 1.85; T1/2 (h): 4.95; AUC24h (μg·h/mL): 24.31 | 2b: Tmax (h): 4.00; Cmax (μg/mL): 5.56; T1/2 (h): 1.96; AUC24h (μg·h/mL): 41.57 | 2c: Tmax (h): 3.33; Cmax (μg/mL): 1.96; T1/2 (h): 6.69; AUC24h (μg·h/mL): 10.77

[8] = In vivo single-dose toxicity in male Sprague Dawley rats; parameters: species or system rat; details: for Clinical signs: animals with liquid feces: n = 4, recovered by day 4; for Body weight change: recovered on day 14
Experimental: After single administration using 55% PEG200 in distilled water as a vehicle, each group of four rats was monitored for 15 days. […] Therefore, the approximate lethal dose of compound 2b in this study was estimated to be more than 500 mg/kg.
Figure 3 Body weight changes in male rats (n = 4) treated with compound 2b in a single-dose toxicity study. ** p < 0.01, compared to the control at the same time point (Dunnett’s test).

[9] = in vitro; details: Chinese hamster, Cytotoxicity (CC50) CHO-K1, EZ-Cytox, 24 h
[10] = molecular target: hERG K+ channel (Homo sapiens, UniProt Q12809); assay: cell-based
hERG K+ channel, sequence (Q12809 whole entry): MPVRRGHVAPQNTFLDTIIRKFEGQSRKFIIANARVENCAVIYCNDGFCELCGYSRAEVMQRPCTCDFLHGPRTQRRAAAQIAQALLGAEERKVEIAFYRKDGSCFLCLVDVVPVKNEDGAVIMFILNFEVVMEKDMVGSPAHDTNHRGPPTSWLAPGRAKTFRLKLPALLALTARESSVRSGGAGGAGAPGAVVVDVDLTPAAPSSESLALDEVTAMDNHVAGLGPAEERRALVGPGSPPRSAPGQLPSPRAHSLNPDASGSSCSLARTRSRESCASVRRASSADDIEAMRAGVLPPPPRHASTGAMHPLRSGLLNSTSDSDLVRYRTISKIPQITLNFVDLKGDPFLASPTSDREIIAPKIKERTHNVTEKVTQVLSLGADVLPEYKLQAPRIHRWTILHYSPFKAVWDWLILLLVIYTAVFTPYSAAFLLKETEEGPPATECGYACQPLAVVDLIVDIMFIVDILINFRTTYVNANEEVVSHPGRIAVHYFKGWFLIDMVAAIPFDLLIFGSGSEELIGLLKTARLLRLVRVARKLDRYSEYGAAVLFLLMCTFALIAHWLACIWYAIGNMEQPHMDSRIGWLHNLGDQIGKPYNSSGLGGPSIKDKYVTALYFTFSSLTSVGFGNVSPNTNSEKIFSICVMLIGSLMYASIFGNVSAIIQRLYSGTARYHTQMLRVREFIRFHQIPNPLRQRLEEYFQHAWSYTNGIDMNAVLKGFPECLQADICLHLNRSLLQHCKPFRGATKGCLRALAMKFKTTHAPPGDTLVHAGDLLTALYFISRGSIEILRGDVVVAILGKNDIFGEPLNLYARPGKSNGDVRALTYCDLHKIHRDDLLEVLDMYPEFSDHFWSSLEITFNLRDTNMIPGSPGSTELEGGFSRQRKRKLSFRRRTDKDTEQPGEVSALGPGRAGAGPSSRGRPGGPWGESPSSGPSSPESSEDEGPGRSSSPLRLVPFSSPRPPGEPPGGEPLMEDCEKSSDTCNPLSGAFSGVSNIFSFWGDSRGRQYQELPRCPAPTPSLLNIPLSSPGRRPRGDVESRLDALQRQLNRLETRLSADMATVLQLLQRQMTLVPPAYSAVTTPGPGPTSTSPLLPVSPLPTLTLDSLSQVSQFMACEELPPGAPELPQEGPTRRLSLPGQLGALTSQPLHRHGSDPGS

[11] = EZ-Cytox cell viability assay, L929; details: mouse, Cytotoxicity (CC50) L929, EZ-Cytox
[12] = EZ-Cytox cell viability assay, HFL-1; details: human, Cytotoxicity (CC50) HFL-1, EZ-Cytox
[13] = EZ-Cytox cell viability assay, NIH 3T3; details: mouse, Cytotoxicity (CC50) NIH 3T3, EZ-Cytox
[14] = Microsomal stability assay, rat liver microsomes; details: percentage of original compound remaining after 30 min incubation, NADPH
[15] = Microsomal stability assay, human liver microsomes; details: percentage of original compound remaining after 30 min incubation, NADPH
[16] = parameters: method as in PMID 34914868, PMID 34914869; details: cited from earlier work
[17] = tested on: NIH 3T3, mouse embryonic fibroblast cells; assay: EZ-Cytox cell viability assay, NIH 3T3; details: read-out: Cytotoxicity (CC50) NIH 3T3; EZ-Cytox, 24 h
[18] = CC50/IC50 for inhibiting SARS-CoV-2 infection, Vero cells

For `COC(=O)N(c1cc(Cl)cc(Cl)c1)c1nc2cc(Cl)ccc2c(=O)[nH]1` [Compound 6b, Methyl (7-Chloro-4-oxo-3,4-dihydroquinazolin-2-yl)(3,5-dichlorophenyl)carbamate], the IC50 ([1]; Vero cells) was 7.05 µM, the melting point was 218 to 220 °C and the CC50 at 24 h ([2]; uninfected Vero cells) was over 25 µM.

In the case of `CCC(CC)COC(=O)[C@H](C)N[P@](=O)(OC[C@H]1O[C@@](C#N)(c2ccc3c(N)ncnn23)[C@H](O)[C@@H]1O)Oc1ccccc1` [Remdesivir, reference compound], the “SI (selectivity index)” value [1] is reported as over 14, the IC50 ([1]; Vero cells) is reported as 3.47 µM and the CC50 at 24 h [2] is reported as over 50 µM.

With `Cc1ccc(S(=O)(=O)N(c2cc(Cl)cc(Cl)c2)c2nc3cc(Cl)ccc3c(=O)[nH]2)cc1` [Compound 6d, N-(7-Chloro-4-oxo-3,4-dihydroquinazolin-2-yl)-N-(3,5-dichlorophenyl)-4-methylben-zenesulfonamide] the “SI (selectivity index)” value [1, 18] was over 44, the IC50 ([1]; Vero cells) was 0.57 µM and the melting point was 163 to 165 °C. It also gave a CC50 at 24 h [3] of over 25 µM.

For `O=c1[nH]c(Nc2cc(Cl)cc(Cl)c2)nc2cccc(O)c12` [Compound 5c, 2-((3,5-Dichlorophenyl)amino)-5-hydroxyquinazolin-4(3H)-one], the “SI (selectivity index)” value [1, 18] was over 168, the IC50 ([1]; Vero cells) was 0.15 µM and the melting point was over 300 °C. It also gave a CC50 at 24 h [3] of over 25 µM.

With `O=C(CO)N(c1cc(Cl)cc(Cl)c1)c1nc2cc(Cl)ccc2c(=O)[nH]1` [Compound 8, N-(7-Chloro-4-oxo-3,4-dihydroquinazolin-2-yl)-N-(3,5-dichlorophenyl)-2-hydroxy-acetamide] the “SI (selectivity index)” value [1, 18] was over 10, the IC50 ([1]; Vero cells) was 2.57 µM and the melting point was 263 to 265 °C. It also gave a CC50 at 24 h [3] of over 25 µM.

In the case of `O=c1[nH]c(Nc2cc(Cl)cc(Cl)c2)nc2cc(Cl)ccc12` [Compound 1a, 7-Chloro-2-((3,5-dichlorophenyl)amino)quinazolin-4(3H)-one], the IC50 ([1]; Vero cells) is given as 0.23 µM, the CC50 at 24 h [3] is given as over 25 µM and the Cytotoxicity [4] is given as “no cytotoxicity”. The AUC24h [5] was 6620 ng·h/mL and the Cmax [5] was 870 ng/mL.

For `O=c1[nH]c(Nc2cc(F)cc(F)c2)nc2cc(Cl)ccc12` [Compound 1b, 7-Chloro-2-((3,5-difluorophenyl)amino)quinazolin-4(3H)-one], the “SI (selectivity index)” value [1, 18] was 74, the IC50 ([1]; Vero cells) was 0.24 µM and the CC50 at 24 h [3] was 18 µM.

With `CC(=O)N(c1cc(F)cc(F)c1)c1nc2cc(Cl)ccc2c(=O)[nH]1` [Compound 2b, N-(7-Chloro-4-oxo-3,4-dihydroquinazolin-2-yl)-N-(3,5-difluorophenyl)acetamide] the IC50 ([1]; Vero cells) was 0.29 µM, the IC50 [6] was 0.99 µM and the Cmax [7] was 5560 ng/mL. The Tmax [7] was 4 h, the half-life [7] was 1.96 h and the AUC(0-t) [7] was 41600 ng·h/mL. The “Clinical signs: animals with liquid feces” value ([8]; 250 mg/kg group) was “one animal”, the Body weight change ([8]; 250 mg/kg, day 4, Dunnett's test) was “statistically significant reduction” and the “Clinical signs: animals with liquid feces” value ([8]; 500 mg/kg group) was “two animals”. The Body weight change ([8]; 500 mg/kg, days 4 and 8, Dunnett's test) was “statistically significant reduction”, the “Gross observations of the organs” value ([8]; 250 and 500 mg/kg) was “did not reveal changes in any of the organs examined” and the Mortality ([8]; single oral dose 250 and 500 mg/kg, monitored 15 days) was “no deaths; also recorded: no mortality; also recorded: no animals died”. For the same compound, the Approximate lethal dose ([8]; single oral dose, male rats) was “greater than 500 mg/kg”, the CC50 at 24 h [3] was over 25 µM and the CC50 [9] was 14.6 µM. For the same compound, the IC50 [10] was 30 µM, the CC50 at 24 h [11] was 17.9 µM and the CC50 at 24 h [12] was 12.6 µM. For the same compound, the CC50 at 24 h [13] was 22.7 µM.

In the case of `O=C1CC2(CCCC2)CC(=O)N1CCCCN1CCN(c2ncccn2)CC1` [buspirone, reference compound], the “Microsomal Stability (%) Rat” value [14] is reported as under 5% and the “Microsomal Stability (%) Human” value [15] is reported as under 10%.

For `CC(C)C(=O)OC[C@H]1O[C@@H](n2ccc(NO)nc2=O)[C@H](O)[C@@H]1O` [molnupiravir], the “Incidence of hospitalization or death at day 29” value ([16]; 48 out of 709 patients) is given as 6.8% and the “Reduction in COVID-19-related hospitalization or death” value ([16]; versus placebo) is given as 30%.

Work on `CN(c1cc(Cl)cc(Cl)c1)c1nc2cc(Cl)ccc2c(=O)[nH]1` [Compound 6c, 7-Chloro-2-((3,5-dichlorophenyl)(methyl)amino)quinazolin-4(3H)-one] yielded an IC50 ([1]; Vero cells) of 5.66 µM, a melting point of 287 to 289 °C and a CC50 at 24 h [3] of over 25 µM.

Compound `O=C(C(O)OCc1ccccc1)N(c1cc(Cl)cc(Cl)c1)c1nc2cc(Cl)ccc2c(=O)[nH]1` (stereo not shown) has a melting point of 282 to 284 °C.

For `CCC(=O)N(c1cc(Cl)cc(Cl)c1)c1nc2cc(Cl)ccc2c(=O)[nH]1` [Compound 6a, N-(7-Chloro-4-oxo-3,4-dihydroquinazolin-2-yl)-N-(3,5-dichlorophenyl)propionamide], the “SI (selectivity index)” value [1, 18] was over 117, the IC50 ([1]; Vero cells) was 0.21 µM and the melting point was 223 to 225 °C. It also gave a CC50 at 24 h [3] of over 25 µM.

With `CC(=O)N(c1cc(Cl)cc(Cl)c1)c1nc2cc(Cl)ccc2c(=O)[nH]1` [Compound 2a, N-(7-Dichloro-4-oxo-3,4-dihydroquinazolin-2-yl)-N-(3,5-dichlorophenyl)acetamide] the “SI (selectivity index)” value [1] was 26, the IC50 ([1]; Vero cells) was 0.33 µM and the IC50 [6] was 0.54 µM. The Cmax [7] was 1850 ng/mL, the Tmax [7] was 4.67 h and the half-life [7] was 4.95 h. It also gave an AUC(0-t) [7] of 24300 ng·h/mL, a melting point of 236 to 238 °C and a CC50 at 24 h [3] of 9.39 µM. For the same compound, the IC50 [10] was 15.2 µM, the CC50 at 24 h [13] was under 10 µM and the CC50 [17] was 7.6 µM.

Work on `CC(=O)N(c1cc(Cl)cc(Cl)c1)c1nc2cccc(O)c2c(=O)[nH]1` [Compound 2c, N-(3,5-Dichlorophenyl)-N-(5-hydroxy-4-oxo-3,4-dihydroquinazolin-2-yl)acetamide] yielded an IC50 ([1]; Vero cells) of 0.11 µM, a Cmax [7] of 1960 ng/mL and a Tmax [7] of 3.33 h. The half-life [7] was 6.69 h, the AUC(0-t) [7] was 10800 ng·h/mL and the CC50 at 24 h [3] was over 25 µM. For the same compound, the CC50 [9] was 17.1 µM, the IC50 [10] was over 50 µM and the CC50 at 24 h [11] was 42.7 µM. For the same compound, the CC50 at 24 h [12] was 13.7 µM, the CC50 at 24 h [13] was 59.9 µM and the “Microsomal Stability (%) Rat” value [14] was 57%. For the same compound, the “Microsomal Stability (%) Human” value [15] was 10%.
